Test results taken from patent US5955421A, “Peptides containing D-2-alkyl-Tryptophan” (priority 1990, dated 1999).

System: plasma testosterone
Conditions: dog, in vivo, sc
Method: The peptide of Example 3 was formulated in a polymeric PLGA implant in the form of rods which were about 1 cm long and 1 mm in diameter. These implants contained a loading of either 20 or 25% of the peptide (an amount of 7 or 10 mg), and were inserted subcutaneously into in male Beagle dogs which weighed between 10 and 12 kg.

Structure (SMILES): CCNC(=O)[C@@H]1CCCN1C(=O)[C@H](CCCNC(=N)N)NC(=O)[C@H](CC(C)C)NC(=O)[C@@H](Cc1c(C)[nH]c2ccccc12)NC(=O)[C@H](Cc1ccc(O)cc1)NC(=O)[C@H](CO)NC(=O)[C@H](Cc1c[nH]c2ccccc12)NC(=O)[C@H](Cc1c[nH]cn1)NC(=O)[C@@H]1CCC(=O)N1 [Example 3, Pyro-Glu-His-Trp-Ser-Tyr-D-2-alkyl-Trp-Leu-Arg-Pro-NHCH2 CH3]
- clinical side effects: No clinical side effects were observed
